Here are results for one compound from patent US7423060B2, “Thiophene hydroxamic acid derivatives and their use as HDAC inhibitors” (Hoffman-La Roche Inc., priority 2004, dated 2008).

The assay has as its system HT-29 cells. Kind of assay: MTT assay on HT-29 human colon carcinoma cell line. Type of assay: cell-based. Conditions: MTT assay after 5 days, compounds 30 μM to 1.5 nM, read-out: IC90 HT29. As for the experimental part:
To show the activity of the compounds according to this invention, their effects on a human colon carcinoma cell line was evaluated using a standard MTT-assay. MTT (3-(4,5-dimethylthiazol-2-yl)-2,5-diphenyl tetrazolium bromide) is widely used for the quantitative determination of cytotoxic effects or in vitro chemosensitivity of tumor cells. The assay is based on the cleavage of the yellow tetrazolium salt (MTT) to purple formazan crystals by metabolic active cells. For details, see Rubinstein, L. V., et al., J. Natl. Cancer Inst. 82 (1990) 1113-1118.
We proceeded as follows: HT-29 cells (human colon carcinoma cell line, ATCC-No. HTB-38) were cultivated in RPMI 1640 medium with GlutaMAX™ I (Invitrogen, Cat-No. 61870-010), 2.5% fetal calf serum (FCS, Sigma Cat-No. F4135 (FBS)), 2 mM glutamine, 100 units/ml penicillin, 100 μg/ml streptomycin (=Pen/Strep from Invitrogen Cat. No. 15140). For the assay the cells were seeded in 384 well plates, 900 cells per well, in the same medium. At the next day, the compounds (dissolved 10 mM in DMSO) were added in various concentrations ranging from 30 μM to 1.5 nM. After 5 days, the MTT assay was done mainly according to the instructions of the manufacturer (Cell proliferation kit I, MTT, from Roche Molecular Biochemicals). […] After careful mixing, the plates were measured in Victor 2 (scanning multiweil spectrophotometer, Wallac) at 550 nm. […]
In general terms: Formazan colour is commonly taken as a measure of viable cells.

On to `CC(NC(=O)c1ccc(C(=O)NO)s1)c1ccc(OCc2ccc(OC(F)(F)F)cc2)cc1` (stereo not shown) [Example 1-1, Thiophene-2,5-dicarboxylic acid 2-hydroxyamide 5-({1-[4-(4-trifluoromethoxy-benzyloxy)-phenyl]-ethyl}-amide)], for which the IC90 (usually the concentration needed for an effect of 90%) came out at 690 nM.
